From publication PMC8931498 (Frontiers in Pharmacology, 2022)
Read-outs that look alike come from different tables or passages of the source.

Key:
human ABCG2 = system: human ABCG2; design: method as in Tournier et al. (2010); settings: hABCG2-transfected HEK293 cells, flow cytometric assay; ref Tournier et al. (2010); cited from earlier work
human ABCB1 = system: human ABCB1; design: method as in Tournier et al. (2010); settings: hABCB1-transfected HEK293 cells, flow cytometric assay; ref Tournier et al. (2010); cited from earlier work
[1] = Tissue distribution 2 h after oral ibogaine in wild-type, Abcg2-/- and Abcb1a/1b;Abcg2-/- mice; format: in vivo; settings: for fold decrease in total amount (% of dose) in SIWC corrected for plasma AUC over 2 h: small intestine with fecal content, oral 10 mg/kg ibogaine; for Kp at 2 h: mouse, po, 10 mg/kg
Procedure: (§1) In each experiment, six to seven mice were used per strain. […] To reduce variation in absorption upon oral administration, mice were fasted for 2–3 h before dosing. […] At either 2 or 8 h after dosing, mice were deeply anesthetized with isoflurane (3%), followed by cardiac puncture to collect blood (at least 600 μL) in Eppendorf tubes using heparin as an anticoagulant. The mice were then sacrificed by cervical dislocation, and tissues including the brain, liver (without gallbladder), kidneys, spleen, small intestine together with the fecal content (SIWC), heart, and subcutaneous inguinal white adipose tissue were collected and weighed. For the 2 h experiment, the gallbladder with content was also (separately) collected in an Eppendorf tube and weighed. Plasma was obtained from blood samples by centrifugation at 9,000 g for 6 min at 4 °C. Tissue homogenates (except gallbladder) were obtained using the Fast Prep-24 5G homogenizer (MP Biomedicals Inc., Santa Ana, CA, United States). Before homogenization, Bovine Serum Albumin (BSA, Fraction V) was dissolved at a concentration of 2% (w/v) in distilled water. Three mL of ice-cold 2% BSA were added to liver and SIWC; 2 ml to kidneys; 1 ml to brain, spleen, and heart; and 2–3 ml to the white adipose tissue (depending on the tissue weight). For the gallbladder, 150 μL of 2% BSA was added; then, the samples were centrifuged (9,000 x g, 4°C, 6 min), and only the supernatant was collected for analysis. Both plasma and tissue samples were kept at −70°C in amber-colored Eppendorf tubes until analysis.
(§2) A volume of 50 µL human plasma sample, a 5-fold diluted mouse plasma sample (10 uL + 40 uL control human plasma), or 100 µL homogenized tissue sample were processed. […] To the 50 uL plasma samples, 20 uL of a working solution containing both internal standards at a concentration of 10 ng/ml in methanol (WIS10) was added. Sample pre-treatment involved protein precipitation with 150 uL of acetonitrile-methanol (1:1, v/v). For the tissue homogenates (100 uL sample aliquots), 40 uL of WIS10 was added, and 300 uL precipitation reagent as sample cleanup. After centrifuging the samples (10 min, 4°C, 15,000 x g), 100 µL of the supernatant was transferred to an amber-colored autosampler vial with insert. Then 100 µL of 4 mM ammonium formate pH 3.5 in water was added, and after vortex mixing, the extracts were injected (5 uL) onto a UPLC system (Acquity UPLC I-Class IVD system, Waters, Milford, MA, United States) equipped with an Acquity UPLC HSS T3 Column (150 × 2.1 mm ID, 1.8 µm). The tray temperature was set to 5 ± 3°C, and the analytical column was kept at 50°C. Gradient elution was applied using 4 mM ammonium formate pH 3.5 in water as eluent A and acetonitrile as eluent B. The flow rate was 500 μL/min, and the total runtime was 6 min. Detection was performed in the positive ion mode on a Quadrupole MS/MS detector with a Turbo Ion Spray Interface (QTRAP5500, Sciex, Framingham, MA, United States). The ionspray voltage was 2250 V, and the spray temperature was 700 °C. Gas settings, potentials, and collision energies were optimized by infusion of the analytes and by flow injection analysis.
(§3) Pharmacokinetic parameters were calculated by non-compartmental methods using the Microsoft Excel menu-driven add-in program PKsolver ([Zhang et al., 2010]). The area under the plasma concentration-time curve (AUC) was calculated with the trapezoidal rule without extrapolating to infinity. The peak plasma concentration (Cmax) and the time to reach Cmax (Tmax) were estimated from the original data. […] GraphPad Prism 9 (GraphPad Software Inc., San Diego, CA, United States) was used to plot the data and to perform statistical analysis. To determine whether the most extreme value in a data set was a significant outlier from the rest, the Grubbs’s (or extreme studentized variate) test was applied (α = 0.05). All data were log-transformed before statistical analysis. […]

[2] = Plasma pharmacokinetics over 8 h after oral ibogaine in wild-type, Cyp3a-/- and Cyp3aXAV mice; format: in vivo; settings: female, mouse, 10 mg/kg; for AUC(0-t): read-out: AUC0-8h
Procedure: as §1, §2, §3

[3] = Plasma pharmacokinetics over 2 h after oral ibogaine in wild-type, Abcg2-/- and Abcb1a/1b;Abcg2-/- mice; format: in vivo; settings: for Fold increase AUC0-2h: oral 10 mg/kg ibogaine; for Tmax / Cmax / AUC(0-t): mouse, plasma, po, 10 mg/kg; for AUC(0-t): read-out: AUC0-2h
Procedure: as §1, §2, §3

[4] = Plasma pharmacokinetics over 2 h after oral ibogaine in wild-type, Oatp1a/1b-/-, Oatp1a/1b-/-;1B1tg and Oatp1a/1b-/-;1B3tg mice; format: in vivo; settings: for Fold increase AUC0-2h: oral 10 mg/kg ibogaine; for Cmax / Tmax / AUC(0-t): female, mouse, plasma, po, 10 mg/kg; for AUC(0-t): read-out: AUC0-2h
Procedure: as §1, §2, §3

[5] = Tissue accumulation 2 h after oral ibogaine in wild-type and Oatp1a/1b-deficient mouse strains; format: in vivo, mice; settings: for fold reduction in liver accumulation: tissue concentration relative to plasma AUC0-2h, oral 10 mg/kg ibogaine
Procedure: as §1
A volume of 50 µL human plasma sample, a 5-fold diluted mouse plasma sample (10 uL + 40 uL control human plasma), or 100 µL homogenized tissue sample were processed. […] To the 50 uL plasma samples, 20 uL of a working solution containing both internal standards at a concentration of 10 ng/ml in methanol (WIS10) was added. Sample pre-treatment involved protein precipitation with 150 uL of acetonitrile-methanol (1:1, v/v). For the tissue homogenates (100 uL sample aliquots), 40 uL of WIS10 was added, and 300 uL precipitation reagent as sample cleanup. After centrifuging the samples (10 min, 4°C, 15,000 x g), 100 µL of the supernatant was transferred to an amber-colored autosampler vial with insert. […]
Pharmacokinetic parameters were calculated by non-compartmental methods using the Microsoft Excel menu-driven add-in program PKsolver ([Zhang et al., 2010]). The area under the plasma concentration-time curve (AUC) was calculated with the trapezoidal rule without extrapolating to infinity. […]

[6] = design: method as in Luz and Mash, 2021; settings: ref Luz and Mash, 2021; cited from earlier work
[7] = design: method as in Mačiulaitis et al., 2008; settings: in 24 h in rats; ref Mačiulaitis et al., 2008; cited from earlier work
[8] = wild-type, inguinal white adipose tissue, read-out: adipose tissue-to-plasma distribution ratio
[9] = Abcb1a/1b;Abcg2-/- mice vs wild-type
[10] = Oatp1a/1b-/-;1B1tg mice vs wild-type
[11] = Oatp1a/1b-/-;1B3tg mice vs wild-type

ibogaine
inhibition of human ABCG2 (human ABCG2): significantly inhibited in a concentration-dependent manner | inhibition of human ABCB1 (human ABCB1): significantly inhibited in a concentration-dependent manner

CCC1CC2CC3c4[nH]c5ccc(OC6OC(C(=O)O)C(O)C(O)C6O)cc5c4CCN(C2)C13 (centres unmarked) [Noribogaine glucuronide, noribogaine glucuronide]
fold decrease in liver-to-plasma ratio ([1]; Abcb1a/1b;Abcg2-/- mice compared to WT, 2 h after oral 10 mg/kg ibogaine): 1.7 fold | fold decrease in total amount (% of dose) in SIWC corrected for plasma AUC over 2 h ([1]; Abcb1a/1b;Abcg2-/- mice compared to WT): 2.1 fold | gallbladder-to-plasma ratio, fold lower than in WT ([1]; Abcb1a/1b;Abcg2-/- vs WT mice, not statistically significant, 2 h after oral 10 mg/kg ibogaine): more than 2 fold | fold decrease in total amount (% of dose) in SIWC corrected for plasma AUC over 2 h ([1]; Abcg2-/- mice compared to WT): 1.5 fold | Kp at 2 h [1, 8]: 0.058 | Cmax ([2]; Cyp3a-/-): 114 ± 24 ng/mL | Tmax ([2]; Cyp3a-/-): 1 h | AUC(0-t) ([2]; Cyp3a-/-): 422 ± 110 ng·h/mL | Cmax ([2]; Cyp3aXAV): 123 ± 28 ng/mL | Tmax ([2]; Cyp3aXAV): 1 h | AUC(0-t) ([2]; Cyp3aXAV): 536 ± 117 ng·h/mL | Cmax ([2]; wild-type): 70 ± 13.6 ng/mL | Tmax ([2]; wild-type): 1 h | AUC(0-t) ([2]; wild-type): 219 ± 50 ng·h/mL | Fold increase AUC0-2h [3, 9]: 1.5 | Tmax ([3]; Abcb1a/1b;Abcg2-/-): 2 h | Fold increase AUC0-2h ([3]; Abcg2-/- mice vs wild-type): 1.1 | Tmax ([3]; Abcg2-/-): 2 h | Cmax ([3]; female, Abcb1a/1b;Abcg2-/-): 156 ± 31 ng/mL | AUC(0-t) ([3]; female, Abcb1a/1b;Abcg2-/-): 240 ± 46 ng·h/mL | Cmax ([3]; female, Abcg2-/-): 122 ± 27 ng/mL | AUC(0-t) ([3]; female, Abcg2-/-): 184 ± 32 ng·h/mL | Cmax ([3]; female, wild-type): 125 ± 30 ng/mL | Tmax ([3]; female, wild-type): 2 h | AUC(0-t) ([3]; female, wild-type): 164 ± 12 ng·h/mL | Fold increase AUC0-2h ([3]; wild-type mice (reference)): 1.0 | Fold increase AUC0-2h ([4]; Oatp1a/1b-/- mice vs wild-type): 1.5 | Fold increase AUC0-2h [4, 10]: 1.8 | Fold increase AUC0-2h [4, 11]: 1.4 | Cmax ([4]; Oatp1a/1b-/-): 155 ± 20 ng/mL | Tmax ([4]; Oatp1a/1b-/-): 2 h | AUC(0-t) ([4]; Oatp1a/1b-/-): 244 ± 30 ng·h/mL | Cmax ([4]; Oatp1a/1b-/-;1B1tg): 199 ± 59 ng/mL | Tmax ([4]; Oatp1a/1b-/-;1B1tg): 1 h | AUC(0-t) ([4]; Oatp1a/1b-/-;1B1tg): 294 ± 65 ng·h/mL | Cmax ([4]; Oatp1a/1b-/-;1B3tg): 162 ± 25 ng/mL | Tmax ([4]; Oatp1a/1b-/-;1B3tg): 1 h | AUC(0-t) ([4]; Oatp1a/1b-/-;1B3tg): 236 ± 24 ng·h/mL | Cmax ([4]; wild-type): 125 ± 30 ng/mL | Tmax ([4]; wild-type): 2 h | AUC(0-t) ([4]; wild-type): 164 ± 12 ng·h/mL | Fold increase AUC0-2h ([4]; wild-type mice (reference)): 1.0 | gallbladder-to-plasma ratio, fold higher than liver-to-plasma ratio ([5]; WT mice, 2 h after oral 10 mg/kg ibogaine): about 10 fold

CCC1CC2CC3c4[nH]c5ccc(O)cc5c4CCN(C2)C13 (centres unmarked) [Noribogaine, 12-hydroxyibogamine]
half-life in plasma [6]: 24 to 30 h | Kp at 2 h ([1]; Abcb1a/1b;Abcg2-/-, brain, read-out: brain-to-plasma ratio): 8.3 | liver-to-plasma ratios, times higher than gallbladder-to-plasma ratios ([1]; WT, Abcg2-/- and Abcb1a/1b;Abcg2-/- mice, 2 h after oral 10 mg/kg ibogaine): at least 3 times | absolute brain concentrations, fold higher than those of ibogaine ([1]; wild-type mice, both at 2 and 8 h after oral 10 mg/kg ibogaine): ≥ 100 fold | Kp at 2 h ([1]; wild-type, brain, read-out: brain-to-plasma ratio): 7.2 | Kp at 2 h [1, 8]: 2.8 | excreted via urine and feces, % of the administered dose [7]: 60–70% | Cmax ([2]; Cyp3a-/-): 280 ± 75 ng/mL | Tmax ([2]; Cyp3a-/-): 0.5 h | AUC(0-t) ([2]; Cyp3a-/-): 1070 ± 320 ng·h/mL | Cmax ([2]; Cyp3aXAV): 328 ± 75 ng/mL | Tmax ([2]; Cyp3aXAV): 0.5 h | AUC(0-t) ([2]; Cyp3aXAV): 1400 ± 320 ng·h/mL | Cmax ([2]; wild-type): 217 ± 37 ng/mL | Tmax ([2]; wild-type): 0.5 h | AUC(0-t) ([2]; wild-type): 655 ± 220 ng·h/mL | Fold increase AUC0-2h [3, 9]: 1.2 | Tmax ([3]; Abcb1a/1b;Abcg2-/-): 0.25 h | Fold increase AUC0-2h ([3]; Abcg2-/- mice vs wild-type): 1.1 | Tmax ([3]; Abcg2-/-): 0.25 h | Cmax ([3]; female, Abcb1a/1b;Abcg2-/-): 276 ± 98 ng/mL | AUC(0-t) ([3]; female, Abcb1a/1b;Abcg2-/-): 419 ± 126 ng·h/mL | Cmax ([3]; female, Abcg2-/-): 233 ± 61 ng/mL | AUC(0-t) ([3]; female, Abcg2-/-): 381 ± 108 ng·h/mL | Cmax ([3]; female, wild-type): 208 ± 70 ng/mL | Tmax ([3]; female, wild-type): 0.5 h | AUC(0-t) ([3]; female, wild-type): 339 ± 107 ng·h/mL | Fold increase AUC0-2h ([3]; wild-type mice (reference)): 1.0 | Fold increase AUC0-2h ([4]; Oatp1a/1b-/- mice vs wild-type): 1.4 | Fold increase AUC0-2h [4, 10]: 1.7 | Fold increase AUC0-2h [4, 11]: 1.5 | Cmax ([4]; Oatp1a/1b-/-): 290 ± 73 ng/mL | Tmax ([4]; Oatp1a/1b-/-): 0.5 h | AUC(0-t) ([4]; Oatp1a/1b-/-): 458 ± 110 ng·h/mL | Cmax ([4]; Oatp1a/1b-/-;1B1tg): 417 ± 95 ng/mL | Tmax ([4]; Oatp1a/1b-/-;1B1tg): 0.25 h | AUC(0-t) ([4]; Oatp1a/1b-/-;1B1tg): 578 ± 86 ng·h/mL | Cmax ([4]; Oatp1a/1b-/-;1B3tg): 411 ± 107 ng/mL | Tmax ([4]; Oatp1a/1b-/-;1B3tg): 0.25 h | AUC(0-t) ([4]; Oatp1a/1b-/-;1B3tg): 519 ± 100 ng·h/mL | Cmax ([4]; wild-type): 209 ± 70 ng/mL | Tmax ([4]; wild-type): 0.5 h | AUC(0-t) ([4]; wild-type): 339 ± 107 ng·h/mL | Fold increase AUC0-2h ([4]; wild-type mice (reference)): 1.0 | fold reduction in liver accumulation ([5]; Oatp1a/1b-/- mice compared to WT): 1.6 fold | fold reduction in liver accumulation ([5]; Oatp1a/1b-/-;1B1tg mice compared to WT): 1.8 fold | fold reduction in liver accumulation ([5]; Oatp1a/1b-/-;1B3tg mice compared to WT): 2.1 fold
